Test results reported in patent publication US11619628B2, “Device and determination system using same” (Osaka University, priority 2017, dated 2023).

B1: UnaG (CΔ0)-NLuc (NΔ1) fusion protein: Fusion of UnaG (CΔ0) and NLuc (NΔ1) at the KpnI site, linker GT; amino acid sequence SEQ ID NO: 12 (protein)
chain: GGSGMVEKFVGTWKIADSHNFGEYLKAIGAPKELSDGGDATTPTLYISQKDGDKMTVKIENGPPTFLDTQVKFKLGEEFDEFPSDRRKGVKSVVNLVGEKYVQKWDGKETTYVREIKDGKLVVTLTMGDVVAVRSYRRATEGTVFTLEDFVGDWRQTAGYNLDQVLEQGGVSSLFQNLGVSVTPIQRIVLSGENGLKIDIHVIIPYEGLSGDQMGQIEKIFKVVYPVDDHHFKVILHYGTLVIDGVTPNMIDYFGRPYEGIAVFDGKKITVTGTLWNGNKIIDERLINPDGSLLFRVTINGVTGWRLCERILA
modifications: UnaG(C 0)-NLuc(N 1)

How the values were obtained:
UnaG protein = UnaG protein (UniProtKB/Swiss-Prot: P0DM59.1, GenBank: AB763906.1); settings: binding ability to indirect bilirubin; Kumagai et al., Cell 2013, 153, 1602-1611; read-out: dissociation constant; cited from earlier work
[1] = Room-temperature storage of lyophilized samples, bilirubin affinity re-measured; assay type: physicochemical; settings: lyophilized sample stored at room temperature; FIG. 5
Procedure: 500 μL of the purified UnaG (CΔ0)-NLuc (NΔ1) fusion protein was added to a 15-mL Falcon tube and frozen with liquid nitrogen. Thereafter, a powder of the protein solution was obtained by a lyophilizer. The powder was stored at room temperature.
After the preparation of the lyophilized samples, in order to investigate how long the activity is maintained, the lyophilized samples that had been […] were stored at room temperature every few days, and the affinity for bilirubin was measured according to the method described in the above item 7.

Molecule | Kd (UnaG protein) [nM] | activity (affinity for bilirubin) after storage [1]
C=CC1=C(C)/C(=C/c2[nH]c(Cc3[nH]c(/C=C4\NC(=O)C(C)=C4C=C)c(C)c3CCC(=O)O)c(CCC(=O)O)c2C)NC1=O [bilirubin] | 0.098 | –
B1 | – | activity was maintained
